The text below walks through data of patent publication EP1572665B1, “1-N-PHENYLAMINO-1H-IMIDAZOLE DERIVATIVES AS AROMATASE INHIBITORS” (LABORATOIRE THERAMEX, priority 2002, dated 2004).

Counter-ions that a name gives are not always drawn.

One experiment deals with T1, aromatase (Rattus norvegicus, UniProt P22443).
T1 construct: In the rat, estradiol is physiologically synthesized to high circulating levels; from tissue; host or cells: whole animal: adult female Wistar rats (endogenous aromatase)
T1 sequence (P22443 1-508): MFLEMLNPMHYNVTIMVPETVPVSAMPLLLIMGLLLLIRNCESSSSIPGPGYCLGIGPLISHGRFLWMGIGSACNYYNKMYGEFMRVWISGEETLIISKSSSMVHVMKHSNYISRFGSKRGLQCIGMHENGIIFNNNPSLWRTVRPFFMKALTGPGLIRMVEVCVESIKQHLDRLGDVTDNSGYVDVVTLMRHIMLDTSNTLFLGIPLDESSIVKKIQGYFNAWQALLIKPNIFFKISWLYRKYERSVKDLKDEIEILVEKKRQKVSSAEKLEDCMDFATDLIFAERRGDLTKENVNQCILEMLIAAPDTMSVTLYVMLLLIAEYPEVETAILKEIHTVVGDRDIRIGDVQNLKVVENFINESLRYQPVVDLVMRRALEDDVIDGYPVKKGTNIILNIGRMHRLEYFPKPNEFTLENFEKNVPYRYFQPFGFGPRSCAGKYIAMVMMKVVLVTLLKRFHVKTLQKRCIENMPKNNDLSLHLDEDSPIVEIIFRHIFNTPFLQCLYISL
As to the kind of experiment: Inhibition of aromatase in vivo (inhibition of the preovulatory surge of plasma estradiol levels). The settings on record: adult female Wistar rats, single oral administration of 10 micrograms/kg on diestrus, plasma estradiol 24 hours later, vs vehicle controls, n = number of independent studies; for inhibition at 0.01 mg/kg: rat, read-out: % inhibition at 10 µg/kg. An excerpt:
Aromatase is the steroidogenic enzyme responsible for the biosynthesis of estradiol, the main female sex hormone among estrogens. In the rat, estradiol is physiologically synthesized to high circulating levels in a particular period during the 4-day estrous cycle : it is the so-called preovulatory surge taking place in the afternoon of proestrus, just before ovulation which occurs during the night between proestrous and estrous phases. A sensitive physiological model for in vivo evaluation of aromatase inhibition was developped based on the inhibition of this preovulatory surge of estradiol levels.
Adult female Wistar rats are monitored for regular 4-day estrous cyclicity by daily vaginal smear examination; after 2 or 3 regular cycles, animals are treated by a single oral administration of the very low discriminative dose of 10 micrograms/kg in a 4 ml/kg volume around 04:00 PM on diestrus, i.e. on the day before proestrus. Precisely 24 hours later, aortic blood samples are drawn under gaseous anesthesia. Plasma estradiol levels are measured by radioimmunoassay with commercially available kits (Diagnostic Systems Laboratories, Webster, Texas, U. S. A.). Control and test groups usually consist of 7 to 10 rats, depending on the number of regularly cycling rats to distribute among study groups. Results are expressed in pg/ml and then in % of inhibition taking the estradiol levels of control animals receiving only the oral vehicle as the 100 % reference to allow comparisons between different independent studies, since the preovulatory surge level may vary in each control group from one study to another between about 25 to 40 pg/ml. Table B : Inhibition of aromatase in vivo

The next experiment addresses T2, human aromatase (Homo sapiens, UniProt P11511).
T2 construct: The JEG-3 cell line, derived from a human placental choriocarcinoma, is intrinsically very rich in human aromatase; endogenous in cells; host or cells: JEG-3 (human placental choriocarcinoma)
T2 sequence (P11511 1-503): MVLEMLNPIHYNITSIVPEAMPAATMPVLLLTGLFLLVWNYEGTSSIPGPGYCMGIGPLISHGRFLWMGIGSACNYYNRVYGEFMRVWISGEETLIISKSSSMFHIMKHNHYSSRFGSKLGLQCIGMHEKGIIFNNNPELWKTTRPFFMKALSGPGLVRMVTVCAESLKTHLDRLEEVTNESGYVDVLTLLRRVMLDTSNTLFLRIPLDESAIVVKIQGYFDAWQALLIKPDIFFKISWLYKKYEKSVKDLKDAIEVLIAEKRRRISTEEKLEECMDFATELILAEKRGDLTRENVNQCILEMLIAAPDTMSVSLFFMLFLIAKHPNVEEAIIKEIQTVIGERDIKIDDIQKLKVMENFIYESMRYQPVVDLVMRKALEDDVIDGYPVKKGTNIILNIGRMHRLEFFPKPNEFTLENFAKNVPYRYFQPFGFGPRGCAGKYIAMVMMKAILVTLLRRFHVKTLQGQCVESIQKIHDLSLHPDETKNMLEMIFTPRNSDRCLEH
The experiment in a line: Inhibition of human aromatase in vitro in JEG-3 cells (3H-water release from 1β-3H-androstenedione). Format: cell-based. The settings on record: JEG-3 cell line; 1β-3H-androstenedione 10 nM; 2 hours incubation; mean ± sem.

Method for human aromatase: Stocks of JEG-3 cells are grown up to 80 % of confluence as monolayers in plastic flasks in minimum Eagle's medium with 1 g/l glucose and 10 % decomplemented fetal calf serum at pH 7.4 and 37° C, under a 5 % CO2 atmosphere. Then, 24 hours before aromatase activity measurement, JEG-3 cells are distributed for seeding in 96-well microplates (60,000 to 100,000 viable cells in 100 µl of culture medium per well) ; 24 hours later, microplates are rinsed and fresh medium containing the radioactive aromatase substrate (1β-^3H-androstenedione, 10 nM) is added together with test compounds dissolved with 1 % dimethylsulfoxide in a test concentration range between 10^-11 and 10^-4 M in a total volume of 150 µl.
Two hours after the beginning of the incubation, 100 µl of the supernatants are transferred to homologous new 96-well microplates. A solution of dextran-coated charcoal (1 %) is added in each well (100 µl/well) ; after standing for 10 minutes on ice, microplates are centrifuged (1500 g) for 10 more minutes at 4° C. All steroids, including the radioactive substrate and the newly biosynthesized estrogens, are trapped complexed by the charcoal ; only ^3H-water specifically formed during aromatisation of 1β-^3H-androstenedione, involving a specific oxidative step removing the 1β-^3H, remains in the supernatant at this stage. […]

Regarding `CC(C)(C#N)c1cc(Cn2cncn2)cc(C(C)(C)C#N)c1` [Anastrozole, anastrozole, reference compound], the inhibition at 0.01 mg/kg at aromatase was in the range of 18 to 33%. Still for that read-out and setting: then `N#Cc1ccc(N(Cc2ccc(C(F)(F)F)cc2)n2ccnc2)cc1` [Example 6, 4-[N-(1H-imidazol-1-yl)-N-(4-trifluoromethylphenylmethyl)amino]-benzonitrile], with 57%; and `N#Cc1ccc(N(Cc2ccc(Cl)cc2)n2ccnc2)cc1` [Example 7, 4-[N-(1H-imidazol-1-yl)-N-(4-chlorophenylmethyl)amino]benzonitrile, hydrochloride], with 47%; and `N#Cc1ccc(CN(c2ccc(C#N)cc2)n2ccnc2)cc1` [Example 11, 4-[N-(1H-imidazol-1-yl)-N-(4-cyanophenylmethyl)amino]benzonitrile, hydrochloride], with 57 to 59%. On the same count and under the same terms, then `N#Cc1ccc(N(Cc2ccc(F)cc2)n2ccnc2)cc1` [Example 14, 4-[N-(1H-imidazol-1-yl)-N-(4-fluorophenylmethyl)amino]benzonitrile, hydrochloride hemihydrate], with 49 to 57%. The same measure, in the same setting: the value for `N#Cc1ccc(N(Cc2ccc(F)c(F)c2)n2ccnc2)cc1` [Example 17, 4-[N-(1H-imidazol-l-yl)-N-(3,4-difluorophenylmethyl)amino]benzonitrile] was 60%. As to `N#Cc1ccc(N(Cc2ccc(Br)cc2)n2cnnc2)cc1` [YM 511, reference compound], at human aromatase, 0.3 ± 0.04 nM corresponded to half-maximal inhibition (IC50). Further, the “% inhibition at 10 µg/kg” value on aromatase came out at 35%.
